Consider one compound from publication PMC5218480 (PLoS ONE, 2017).

This test deals with MV-4-11 cells. Put plainly: Gene expression microarray analysis (Affymetrix PrimeView) and GSEA. It is filed as cell-based, human. Set-up: RFU PODN (11730768_x_at) / Fold change /veh PODN (11730768_x_at) / RFU LINC00158 (11744669_a_at) / Fold change /veh LINC00158 (11744669_a_at) / RFU DUSP10 (11751237_a_at) / Fold change /veh DUSP10 (11751237_a_at) / RFU ID3 (11757404_x_at) / Fold change /veh ID3 (11757404_x_at) / RFU PLEKHG5 (11737974_s_at) / Fold change /veh PLEKHG5 (11737974_s_at) / RFU LRRC4B (11730491_at) / Fold change /veh LRRC4B (11730491_at) / RFU GIMAP4 (11747438_a_at) / Fold change /veh GIMAP4 (11747438_a_at) / RFU KRT8 (11758183_x_at) / Fold change /veh KRT8 (11758183_x_at) / RFU CNN1 (11734310_a_at) / Fold change /veh CNN1 (11734310_a_at) / RFU VPS37D (11726825_at) / Fold change /veh VPS37D (11726825_at) / RFU C10orf10 (11716522_x_at) / Fold change /veh C10orf10 (11716522_x_at) / RFU KIR2DL2 /// KIR2DL4 /// KIR2DL5A /// KIR2DL5B /// KIR2DS1 /// KIR2DS2 /// KIR2DS3 /// KIR2DS4 /// KIR3DL3 /// KIR3DL3 /// KIR3DS1 (11738374_at) / Fold change /veh KIR2DL2 /// KIR2DL4 /// KIR2DL5A /// KIR2DL5B /// KIR2DS1 /// KIR2DS2 /// KIR2DS3 /// KIR2DS4 /// KIR3DL3 /// KIR3DL3 /// KIR3DS1 (11738374_at) / RFU C1QL1 (11718748_at) / Fold change /veh C1QL1 (11718748_at) / RFU TMPRSS4 (11747572_a_at) / Fold change /veh TMPRSS4 (11747572_a_at) / RFU HAMP (11756126_x_at) / Fold change /veh HAMP (11756126_x_at) / RFU RNFT2 (11725882_a_at) / Fold change /veh RNFT2 (11725882_a_at) / RFU NR4A2 (11747474_a_at) / Fold change /veh NR4A2 (11747474_a_at) / RFU ABCC12 (11746883_a_at) / Fold change /veh ABCC12 (11746883_a_at) / RFU TMEM136 (11760407_x_at) / Fold change /veh TMEM136 (11760407_x_at) / RFU CLDN22 /// WWC2 (11732394_at) / Fold change /veh CLDN22 /// WWC2 (11732394_at) / RFU HLA-DPB1 (11760878_x_at) / Fold change /veh HLA-DPB1 (11760878_x_at) / RFU SPINT1 (11716480_a_at) / Fold change /veh SPINT1 (11716480_a_at) / RFU GAP43 (11754022_s_at) / Fold change /veh GAP43 (11754022_s_at) / RFU A4GNT (11735810_at) / Fold change /veh A4GNT (11735810_at) / RFU PRB3 (11715151_x_at) / Fold change /veh PRB3 (11715151_x_at) / RFU TUBB4B (11761932_at) / Fold change /veh TUBB4B (11761932_at) / RFU CAPN14 (11732068_a_at) / Fold change /veh CAPN14 (11732068_a_at) / RFU TMCC2 (11721928_a_at) / Fold change /veh TMCC2 (11721928_a_at) / RFU IRGQ (11745062_a_at) / Fold change /veh IRGQ (11745062_a_at) / RFU FAM174B (11720279_a_at) / Fold change /veh FAM174B (11720279_a_at) / RFU TMPRSS4 (11748680_a_at) / Fold change /veh TMPRSS4 (11748680_a_at) / RFU FAM212B (11763350_a_at) / Fold change /veh FAM212B (11763350_a_at) / RFU PLEKHG5 (11743358_a_at) / Fold change /veh PLEKHG5 (11743358_a_at) / RFU ZSCAN30 (11745921_a_at) / Fold change /veh ZSCAN30 (11745921_a_at) / RFU CMKLR1 (11741424_a_at) / Fold change /veh CMKLR1 (11741424_a_at) / RFU LOC101060620 /// MAPK8IP1 (11723275_at) / Fold change /veh LOC101060620 /// MAPK8IP1 (11723275_at) / RFU SPTSSB (11747773_x_at) / Fold change /veh SPTSSB (11747773_x_at) / RFU PRSS12 (11739890_at) / Fold change /veh PRSS12 (11739890_at) / RFU BIN1 (11741810_x_at) / Fold change /veh BIN1 (11741810_x_at) / RFU WNT11 (11732464_a_at) / Fold change /veh WNT11 (11732464_a_at) / RFU C10orf10 (11716521_a_at) / Fold change /veh C10orf10 (11716521_a_at) / RFU C5orf56 (11738089_at) / Fold change /veh C5orf56 (11738089_at) / RFU CYB561 (11721691_x_at) / Fold change /veh CYB561 (11721691_x_at) / RFU ANKRD19P (11752326_a_at) / Fold change /veh ANKRD19P (11752326_a_at) / RFU OR2T12 /// OR2T33 /// OR2T8 (11738714_s_at) / Fold change /veh OR2T12 /// OR2T33 /// OR2T8 (11738714_s_at) / RFU VCAN (11748164_a_at) / Fold change /veh VCAN (11748164_a_at) / RFU JSRP1 (11732532_at) / Fold change /veh JSRP1 (11732532_at) / RFU KRTAP10-11 (11738290_x_at) / Fold change /veh KRTAP10-11 (11738290_x_at) / RFU MYO3A (11730013_a_at) / Fold change /veh MYO3A (11730013_a_at) / RFU EBF3 (11725865_a_at) / Fold change /veh EBF3 (11725865_a_at) / RFU CAMK2N1 (11719241_x_at) / Fold change /veh CAMK2N1 (11719241_x_at) / RFU C5orf56 (11738088_a_at) / Fold change /veh C5orf56 (11738088_a_at) / RFU OLFML3 (11715873_a_at) / Fold change /veh OLFML3 (11715873_a_at) / RFU LOC100653217 /// NTM (11731650_a_at) / Fold change /veh LOC100653217 /// NTM (11731650_a_at) / RFU MAPK11 (11762145_a_at) / Fold change /veh MAPK11 (11762145_a_at) / RFU FIZ1 (11724087_x_at) / Fold change /veh FIZ1 (11724087_x_at) / RFU OASL (11726364_x_at) / Fold change /veh OASL (11726364_x_at) / RFU SOX15 (11748057_x_at) / Fold change /veh SOX15 (11748057_x_at) / RFU CD79A (11719716_a_at) / Fold change /veh CD79A (11719716_a_at) / RFU HIST1H1D (11736915_at) / Fold change /veh HIST1H1D (11736915_at) / RFU CASKIN2 (11723855_a_at) / Fold change /veh CASKIN2 (11723855_a_at) / RFU LOC730098 (11760151_x_at) / Fold change /veh LOC730098 (11760151_x_at) / RFU OR4N2 (11742367_at) / Fold change /veh OR4N2 (11742367_at) / RFU PRRT2 (11749266_a_at) / Fold change /veh PRRT2 (11749266_a_at) / RFU SNX32 (11753110_a_at) / Fold change /veh SNX32 (11753110_a_at) / RFU CDHR5 (11726645_a_at) / Fold change /veh CDHR5 (11726645_a_at) / RFU RCAN1 (11760418_a_at) / Fold change /veh RCAN1 (11760418_a_at) / RFU FAM167A (11723789_a_at) / Fold change /veh FAM167A (11723789_a_at) / RFU FAM26E (11764081_at) / Fold change /veh FAM26E (11764081_at) / RFU ISYNA1 (11749810_s_at) / Fold change /veh ISYNA1 (11749810_s_at) / RFU ACY1 (11761880_at) / Fold change /veh ACY1 (11761880_at) / RFU 11764098_at / Fold change /veh 11764098_at / RFU SAMD14 (11745864_x_at) / Fold change /veh SAMD14 (11745864_x_at) / RFU NPB (11741838_a_at) / Fold change /veh NPB (11741838_a_at) / RFU TMPRSS6 (11731388_a_at) / Fold change /veh TMPRSS6 (11731388_a_at) / RFU KRTAP10-2 (11738614_at) / Fold change /veh KRTAP10-2 (11738614_at) / RFU ARHGAP8 /// PRR5-ARHGAP8 (11727945_x_at) / Fold change /veh ARHGAP8 /// PRR5-ARHGAP8 (11727945_x_at) / RFU KRTAP5-7 /// NADSYN1 (11734609_at) / Fold change /veh KRTAP5-7 /// NADSYN1 (11734609_at) / RFU RASL12 (11751679_a_at) / Fold change /veh RASL12 (11751679_a_at) / RFU CDKN2B (11736163_a_at) / Fold change /veh CDKN2B (11736163_a_at) / RFU PRF1 (11729649_at) / Fold change /veh PRF1 (11729649_at) / RFU, ZNF638 /// ZNF638-IT1 / Fold change vs veh, ZNF638 /// ZNF638-IT1 / RFU, PANK3 / Fold change vs veh, PANK3 / RFU, SH3YL1 / Fold change vs veh, SH3YL1 / RFU, ZEB2 / Fold change vs veh, ZEB2 / RFU, NRIP1 / Fold change vs veh, NRIP1 / RFU, PTTG1IP / Fold change vs veh, PTTG1IP / RFU, CAPN2 / Fold change vs veh, CAPN2 / RFU, MED14 / Fold change vs veh, MED14 / RFU, SNORA58 / Fold change vs veh, SNORA58 / RFU, C1orf63 / Fold change vs veh, C1orf63 / RFU, LRRFIP1 / Fold change vs veh, LRRFIP1 / RFU, NDUFAF7 / Fold change vs veh, NDUFAF7 / RFU, SLC12A2 / Fold change vs veh, SLC12A2 / RFU, IBTK / Fold change vs veh, IBTK / RFU, ESF1 / Fold change vs veh, ESF1 / Fold change vs veh, TMEM50B / RFU, TAOK1 / Fold change vs veh, TAOK1 / RFU, ACBD3 / Fold change vs veh, ACBD3 / RFU, TMA16 / Fold change vs veh, TMA16 / RFU, RWDD3 / Fold change vs veh, RWDD3 / RFU, BCAT1 / Fold change vs veh, BCAT1 / RFU, EDEM3 / Fold change vs veh, EDEM3 / RFU, TMEM33 / Fold change vs veh, TMEM33 / RFU, WDR75 / Fold change vs veh, WDR75 / RFU, AHCTF1 / Fold change vs veh, AHCTF1 / RFU, TFRC / Fold change vs veh, TFRC / RFU, ZDHHC17 / Fold change vs veh, ZDHHC17 / RFU, NOM1 / Fold change vs veh, NOM1 / RFU, ARL8B / Fold change vs veh, ARL8B / RFU, ZBTB11 / Fold change vs veh, ZBTB11 / RFU, TAMM41 / Fold change vs veh, TAMM41 / RFU, KIAA1704 /// LOC100996395 / Fold change vs veh, KIAA1704 /// LOC100996395 / RFU, ING1 / Fold change vs veh, ING1 / RFU, TRMT61B / Fold change vs veh, TRMT61B / RFU, FUBP3 / Fold change vs veh, FUBP3 / RFU, TP53 / Fold change vs veh, TP53 / RFU, TNKS2 / Fold change vs veh, TNKS2 / RFU, ZFP14 / Fold change vs veh, ZFP14 / RFU, ACTR2 / Fold change vs veh, ACTR2 / RFU, PPP3R1 / Fold change vs veh, PPP3R1 / RFU, PIK3R1 / Fold change vs veh, PIK3R1 / RFU, HNRNPA1 / Fold change vs veh, HNRNPA1 / RFU, RNF170 / Fold change vs veh, RNF170 / RFU, ZNF28 / Fold change vs veh, ZNF28 / RFU, RNGTT / Fold change vs veh, RNGTT / RFU, OGT / Fold change vs veh, OGT / RFU, BRD1 / Fold change vs veh, BRD1 / RFU, MARS / Fold change vs veh, MARS / RFU, ZNF655 / Fold change vs veh, ZNF655 / RFU, FAHD1 / Fold change vs veh, FAHD1 / RFU, BDP1 / Fold change vs veh, BDP1 / RFU, LRRCC1 / Fold change vs veh, LRRCC1 / RFU, ARID1A / Fold change vs veh, ARID1A / RFU, ZNF146 / Fold change vs veh, ZNF146 / RFU, ZNF330 / Fold change vs veh, ZNF330 / RFU, GPN3 / Fold change vs veh, GPN3 / RFU, C9orf123 / Fold change vs veh, C9orf123 / RFU, N4BP2L2 / Fold change vs veh, N4BP2L2 / RFU, ARFIP1 / Fold change vs veh, ARFIP1 / RFU, FAM179B / Fold change vs veh, FAM179B / RFU, BCL10 / Fold change vs veh, BCL10 / RFU, UHRF1BP1L / Fold change vs veh, UHRF1BP1L / RFU, BET1 / Fold change vs veh, BET1 / RFU, CNOT2 / Fold change vs veh, CNOT2 / RFU, ZNF268 / Fold change vs veh, ZNF268 / Fold change vs veh, ZNF507 / RFU, DGCR2 / Fold change vs veh, DGCR2 / RFU, WDSUB1 / Fold change vs veh, WDSUB1 / Fold change vs veh, HSP90B1 /// MIR3652 / RFU, ADSS / Fold change vs veh, ADSS / RFU, GK / Fold change vs veh, GK / RFU, ZNF148 / Fold change vs veh, ZNF148 / RFU, TAF9 / Fold change vs veh, TAF9 / RFU, SLC1A5 / Fold change vs veh, SLC1A5 / RFU, SLMO2 / Fold change vs veh, SLMO2 / RFU, ABCC4 / Fold change vs veh, ABCC4 / RFU, LOC101060439 /// RAP1B / Fold change vs veh, LOC101060439 /// RAP1B / RFU, RFX7 / Fold change vs veh, RFX7 / RFU, GTPBP10 / Fold change vs veh, GTPBP10 / RFU, CNEP1R1 / Fold change vs veh, CNEP1R1 / RFU, BIVM-ERCC5 /// ERCC5 / Fold change vs veh, BIVM-ERCC5 /// ERCC5 / RFU, ILF3 / Fold change vs veh, ILF3 / RFU 11762660_at / Fold change /veh 11762660_at / RFU VCAN (11757783_s_at) / Fold change /veh VCAN (11757783_s_at) / RFU DDX43 (11728927_at) / Fold change /veh DDX43 (11728927_at) / RFU KRT8 (11758188_x_at) / Fold change /veh KRT8 (11758188_x_at) / RFU NKD1 (11759106_at) / Fold change /veh NKD1 (11759106_at) / RFU SRD5A1 (11742802_a_at) / Fold change /veh SRD5A1 (11742802_a_at) / RFU TPSAB1 /// TPSB2 (11721975_s_at) / Fold change /veh TPSAB1 /// TPSB2 (11721975_s_at) / RFU GSTM3 (11746129_a_at) / Fold change /veh GSTM3 (11746129_a_at) / RFU IL23R (11737362_x_at) / Fold change /veh IL23R (11737362_x_at) / RFU TMEM51 (11727254_a_at) / Fold change /veh TMEM51 (11727254_a_at) / RFU PIWIL2 (11732686_x_at) / Fold change /veh PIWIL2 (11732686_x_at) / RFU ORM1 (11744905_x_at) / Fold change /veh ORM1 (11744905_x_at) / RFU CCDC152 (11743942_at) / Fold change /veh CCDC152 (11743942_at) / RFU ECM1 (11717891_a_at) / Fold change /veh ECM1 (11717891_a_at) / RFU IL23R (11748794_a_at) / Fold change /veh IL23R (11748794_a_at) / RFU TNFAIP8L3 (11732012_x_at) / Fold change /veh TNFAIP8L3 (11732012_x_at) / RFU MBOAT4 (11741988_at) / Fold change /veh MBOAT4 (11741988_at) / RFU 11764193_at / Fold change /veh 11764193_at / RFU TMEM53 (11763286_at) / Fold change /veh TMEM53 (11763286_at) / RFU MAGEB2 (11727129_at) / Fold change /veh MAGEB2 (11727129_at) / RFU TMEM200A (11744735_a_at) / Fold change /veh TMEM200A (11744735_a_at) / RFU CCDC152 (11751479_a_at) / Fold change /veh CCDC152 (11751479_a_at) / RFU FAM211A (11726209_a_at) / Fold change /veh FAM211A (11726209_a_at) / RFU RGS16 (11746705_a_at) / Fold change /veh RGS16 (11746705_a_at) / RFU VCAN (11755009_s_at) / Fold change /veh VCAN (11755009_s_at) / RFU RHOB (11743442_s_at) / Fold change /veh RHOB (11743442_s_at) / RFU RGS16 (11720943_a_at) / Fold change /veh RGS16 (11720943_a_at) / RFU RGS16 (11720944_at) / Fold change /veh RGS16 (11720944_at) / RFU, VPS4B / Fold change vs veh, VPS4B / RFU, CREB1 / Fold change vs veh, CREB1 / RFU, DNAJC13 / Fold change vs veh, DNAJC13 / RFU, GNAQ / Fold change vs veh, GNAQ / RFU, CDK5R1 / Fold change vs veh, CDK5R1 / RFU, ZRANB3 / Fold change vs veh, ZRANB3 / RFU, CUL4A / Fold change vs veh, CUL4A / RFU, CCNY / Fold change vs veh, CCNY / RFU, UFL1 / Fold change vs veh, UFL1 / RFU, COG3 / Fold change vs veh, COG3 / RFU, DIAPH2 / Fold change vs veh, DIAPH2 / RFU, SKA2 / Fold change vs veh, SKA2 / RFU, AFF3 / Fold change vs veh, AFF3 / RFU, LMF1 / Fold change vs veh, LMF1 / RFU, IPO11 / Fold change vs veh, IPO11 / RFU, DFFB / Fold change vs veh, DFFB / RFU, FOXP1 / Fold change vs veh, FOXP1 / RFU, CARD8 / Fold change vs veh, CARD8 / RFU, STRN3 / Fold change vs veh, STRN3 / RFU, ADK / Fold change vs veh, ADK / RFU, RASSF2 / Fold change vs veh, RASSF2 / RFU, WIPF1 / Fold change vs veh, WIPF1 / RFU, LARP1B / Fold change vs veh, LARP1B / RFU, RASA1 / Fold change vs veh, RASA1 / RFU, RB1 / Fold change vs veh, RB1 / RFU, PPFIA1 / Fold change vs veh, PPFIA1 / RFU, MAT2A / Fold change vs veh, MAT2A / RFU, CCT5 / Fold change vs veh, CCT5 / RFU, WDR92 / Fold change vs veh, WDR92 / RFU, CUX1 / Fold change vs veh, CUX1 / RFU, TTC7A / Fold change vs veh, TTC7A / RFU, TMEM135 / Fold change vs veh, TMEM135 / RFU, DEPTOR / Fold change vs veh, DEPTOR / RFU, CPM / Fold change vs veh, CPM / RFU, DNAJB6 / Fold change vs veh, DNAJB6 / RFU, CACNA2D3 / Fold change vs veh, CACNA2D3 / RFU, DTX4 / Fold change vs veh, DTX4 / RFU, TFCP2 / Fold change vs veh, TFCP2 / RFU, GMCL1 /// GMCL1P1 / Fold change vs veh, GMCL1 /// GMCL1P1 / RFU, AEBP2 / Fold change vs veh, AEBP2 / RFU, SNHG1 /// SNORD22 /// SNORD25 /// SNORD26 /// SNORD27 /// SNORD28 /// SNORD29 /// SNORD31 / Fold change vs veh, SNHG1 /// SNORD22 /// SNORD25 /// SNORD26 /// SNORD27 /// SNORD28 /// SNORD29 /// SNORD31 / Fold change (Aza/veh), C12orf56 (ProbeSet 11735607_a_at) / Fold change (ACY-1035/veh), C12orf56 (ProbeSet 11735607_a_at) / Fold change (Aza/veh), FGFR1OP (ProbeSet 11751329_s_at) / Fold change (ACY-1035/veh), FGFR1OP (ProbeSet 11751329_s_at) / Fold change (Aza/veh), VPS36 (ProbeSet 11739960_a_at) / Fold change (ACY-1035/veh), VPS36 (ProbeSet 11739960_a_at) / RFU SYPL1 (11715823_x_at) / Fold change /veh SYPL1 (11715823_x_at) / RFU IGFBP7 (11715501_s_at) / Fold change /veh IGFBP7 (11715501_s_at) / RFU REEP3 (11722064_at) / Fold change /veh REEP3 (11722064_at) / RFU IGLL1 (11728026_x_at) / Fold change /veh IGLL1 (11728026_x_at): dose or concentration left out as unconfirmed. As to conditions: ProbeSet 11722022_s_at; LIST D.

As for `Nc1ccc(-c2cccs2)cc1NC(=O)c1ccc2c(c1)cc(C1CC1)n2CCN1CCOCC1` [ACY-1035], the “Fold change vs veh, CDK5R1” value came out at 0.91.
